Laboratory results: PubChem BioAssay (NCI)
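The compound was tested at five concentrations on cells cultured in 96-well plates, with a 48-hour exposure period. The concentration for 50% growth inhibition is given as GI50. Definition used: TGI = concentration required for complete inhibition of growth.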

Tests used:
Experiment in all cases: DTP human tumour cell line panel, 48 h
[1] = tested on: HL-60(TB) leukemia
[2] = tested on: NCI/ADR-RES ovarian
[3] = tested on: RPMI-8226 leukemia
[4] = tested on: SF-295 CNS
[5] = tested on: SW-620 colon
[6] = tested on: SK-OV-3 ovarian
[7] = tested on: M14 melanoma
[8] = tested on: MOLT-4 leukemia
[9] = tested on: MALME-3M melanoma
[10] = tested on: HOP-92 NSCLC

SMILES | TGI [1] [µM] | TGI [2] [µM] | TGI [3] [µM] | TGI [4] [µM] | TGI [5] [µM] | TGI [6] [µM] | TGI [7] [µM] | TGI [8] [µM] | TGI [9] [µM] | GI50 [1] [µM] | GI50 [2] [µM] | GI50 [3] [µM] | GI50 [4] [µM] | GI50 [5] [µM] | GI50 [10] [µM] | TGI [10] [µM] | GI50 [6] [µM] | GI50 [7] [µM] | GI50 [8] [µM] | GI50 [9] [µM]
O=C(O)C/C(=C\c1ccco1)C(=O)O | > 100 | > 100 | > 100 | > 100 | > 100 | > 100 | > 100 | > 100 | > 100 | – | – | – | – | – | – | – | – | – | – | –
CCN(CC)CCOCC[C@H]1CC[C@H]2[C@@H]3[C@H](C)Cc4cc(OS(N)(=O)=O)ccc4[C@H]3CC[C@]12C | 3.87 | 3.87 | 2.67 | 2.14 | 2.75 | 3.2 | 2.59 | 4.31 | – | 1.64 | 1.57 | 0.704 | 0.626 | 1.38 | 1.39 | 3.5 | 1.49 | 1.26 | 1.53 | –
COc1ccc2oc(=O)cc(C(c3ccc[nH]3)c3ccc[nH]3)c2c1 | – | 5.91 | 3.64 | 0.214 | 16.8 | – | 0.191 | 12 | 17.7 | < 0.0502 | 0.0651 | 0.376 | 0.092 | 0.12 | 0.0985 | 2.83 | – | 0.0837 | 0.111 | 0.783
COc1ccc(C(=O)c2cc(OC)c(OC)c(OC)c2)cc1 | 13.2 | > 100 | 76.3 | 0.196 | > 100 | > 13.7 | > 100 | 20.2 | > 100 | – | – | – | – | – | – | > 100 | – | – | – | –
O=C(NC1CCN(Cc2ccccc2)CC1)c1cc(-c2ccncc2)nc2ccc(Cl)cc12 | 59.6 | > 100 | > 74 | 53.5 | > 100 | > 100 | 34.9 | > 46.3 | 26.9 | 17.3 | 22.2 | 12.4 | 17.4 | 19.8 | 2.49 | 47.4 | 23.3 | 7.02 | 4.26 | 9.39
CCNC(=O)[C@@H]1CCCN2C(=O)CC[C@H](NC(=O)[C@H](Cc3ccc(OP(=O)(O)O)cc3)NC(C)=O)C(=O)N12 | > 25 | > 25 | > 25 | > 25 | > 25 | > 25 | > 25 | > 25 | > 25 | > 25 | > 25 | > 25 | > 25 | > 25 | – | – | > 25 | > 25 | > 25 | > 25
Nc1ccc2c(c1)C(=O)C(=O)c1c-2nc2ccccn12 | 5.46 | 5.98 | 4.71 | 2.89 | 3.83 | 7.62 | 0.741 | 4.88 | 0.572 | 1.96 | 1.85 | 1.8 | 1.53 | 1.8 | 2 | 4.21 | 2.64 | 0.281 | 1.96 | 0.271
